Measured values: PMC12297016 (Iranian Journal of Pharmaceutical Research : IJPR, 2025)
pIC50, pKd, pKi: −log10 of the molar value.

Assays:
[1] = molecular target: T1, recombinant human matrix metalloproteinase 9 (rhMMP-9) (Homo sapiens, UniProt P14780); test: Surface plasmon resonance (SPR) binding to immobilized rhMMP-9; settings: 37°C, 5-40 µM
T1 construct: amino acid residues from 107 to 707, consisted of the catalytic domain (Phe107 to Gly223); His-tag; made in house; host or cells: Escherichia coli BL21 (DE3), vector pET21a(+)
Source text: A dual-flow channel MP-SPR Navi 210A analyzer (BioNavis Ltd., Tampere-region, Finland) was used to evaluate SPR kinetic parameters on gold chips (BioNavis Ltd., Finland). A solution of both EDC/NHS ((N-(3-dimethylaminopropyl)-N′-ethylcarbodiimide hydrochloride) (0.2 M) and NHS (N-hydroxysuccinimide) (0.05 M)) was employed for the activation of […] carboxylic groups. Immobilization of the rMMP-9 enzyme on the CMD Au chip was accomplished by a standard amine coupling protocol. For blocking unreacted sites, ethanolamine–HCl (1 M, pH 8.5) reagent was used.
The SPR technique, a current method for examining the interaction between ligand and protein, was employed in this research. As presented in Figure 6, association (Ka) and dissociation (Kd) constants were evaluated through sensorgrams (RU vs. time). Five […] concentrations for each of the three natural compounds were used (5, 10, 20, 30, 40 µM).
The equilibrium constant KD, which evaluates the affinity of a ligand to a protein, was determined using the formula: =Kd/Ka . A lower value of the KD constant indicates a higher interaction affinity between the protein and ligand.

[2] = molecular target: T1, recombinant human matrix metalloproteinase 9 (rhMMP-9); test: Protease activity assay of rhMMP-9 with casein as substrate; assay type: biochemical; settings: for α: KI = α × Ki; for type of inhibition: Lineweaver-Burk and secondary plots, mixed type; for pIC50: casein degradation assay, inhibitor 0 to 70 µM, read-out: IC50 of rhMMP-9 activity inhibition; for pKi: dissociation constant of EI complex, from secondary plot of slope against [I]; for αKi (KI): dissociation constant of ESI complex, from Dixon plot of 1/V'max against [I]; for K m: casein substrate
Procedure: To determine the hydrolyzing activity of rhMMP-9, casein was used as a substrate. A casein solution (1% w/v) was added to the extracted and purified rhMMP-9, and the final volume was adjusted to 1 mL with Tris buffer (pH 7). The expression product and substrate mix were incubated with shaking for 5 minutes at 37°C. To stop the process, 1 mL of cold trichloroacetic acid (TCA, 15%) was added to the mixture. This mixture was then kept at -20°C for 10 minutes and centrifuged twice (8000 g, 5 min, 4°C) to separate soluble peptides. The pellet was discarded, and the absorbance of the supernatant soluble peptides fraction was evaluated at 280 nm. All spectrophotometric measurements were accompanied by a blank assay in the absence of the enzyme. Enzyme activity was calculated from the tyrosine standard curve and expressed as mean ± SD in units of [µmol/min] after at least five repeats ([22]). SPSS software version 9 was used for data interpretation, and all graphs were drawn and kinetic parameters calculated using an Excel spreadsheet software program. The Quest Graph IC50 Calculator was used for the calculation of IC50 values.
A cell-free casein degradation-based assay was employed to evaluate the influence of ellagitannins on the catalytic activity of the rhMMP-9 enzyme. By adding various fixed quantities of casein as a substrate and a fixed concentration of enzyme, the enzyme activity was determined in the presence of different concentrations of ellagitannins (ranging from 0 to 70 µM). The rate of tyrosine production by the protease activity of rhMMP-9 was assessed based on a calibration curve over 1 minute, which refers to enzyme activity.
To examine the effects of inhibitors on the kinetic parameters of rhMMP-9, Michaelis-Menten saturation curves and Lineweaver-Burk plots were drawn in the presence of various concentrations of inhibitors (5 - 30 µM) and substrate range (0 - 0.3%) (Figure 4).
The first of these is a Dixon plot of 1/Vʹmax against the concentration of inhibitor [I], from which the value of -αKi as the x-intercept can be determined (Figure 5A - C). The second is the slope of the primary plot (from the Lineweaver-Burk plot) against the concentration of inhibitor [I], from which the value of -Ki as the x-intercept can be determined (Figure 5D - F).

T1 sequence (P14780 107-707): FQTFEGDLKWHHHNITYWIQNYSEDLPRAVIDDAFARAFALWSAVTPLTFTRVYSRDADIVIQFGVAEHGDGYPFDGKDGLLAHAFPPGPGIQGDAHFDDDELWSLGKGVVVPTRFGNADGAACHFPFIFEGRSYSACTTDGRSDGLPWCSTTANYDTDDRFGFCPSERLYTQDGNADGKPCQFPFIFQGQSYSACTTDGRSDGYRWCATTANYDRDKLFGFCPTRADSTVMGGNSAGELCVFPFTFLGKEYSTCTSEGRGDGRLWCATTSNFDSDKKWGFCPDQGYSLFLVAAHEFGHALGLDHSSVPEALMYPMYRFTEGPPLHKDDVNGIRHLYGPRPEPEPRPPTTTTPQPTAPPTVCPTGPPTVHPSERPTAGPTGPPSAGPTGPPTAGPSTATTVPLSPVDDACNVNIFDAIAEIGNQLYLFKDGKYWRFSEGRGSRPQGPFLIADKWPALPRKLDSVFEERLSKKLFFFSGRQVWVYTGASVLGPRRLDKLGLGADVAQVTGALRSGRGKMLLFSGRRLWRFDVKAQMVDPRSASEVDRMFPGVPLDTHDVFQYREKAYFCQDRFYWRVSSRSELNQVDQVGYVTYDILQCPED

Structure (SMILES)	pKd [1]	α [2]	type of inhibition [2]	pIC50 [2]	pKi [2]	αKi (KI) ([2]; in µM)	reduction of catalytic activity ([2]; high concentration (60 µM))	V max ([2]; inhibitor 15 µM)	K m ([2]; inhibitor 15 µM)	V max ([2]; inhibitor 30 µM)	K m ([2]; inhibitor 30 µM)	αKi (KI) [2]	extent of inhibition of catalytic activity at high concentrations [2]	V max ([2]; inhibitor 5 µM)	K m ([2]; inhibitor 5 µM)
O=c1oc2c(O)c(O)cc3c(=O)oc4c(O)c(O)cc1c4c23 [EA, ellagic acid]	3.95	1.11	competitive-non-competitive pattern	4.77	4.60	27.57	90%	0.093 ± 0.005 µmol/min	0.03 ± 0.002%	0.078 ± 0.004 µmol/min	0.03 ± 0.002%				
O=c1oc2cc(O)ccc2c2ccc(O)cc12 [Uro A, urolithin A]	4.17	0.25	non-competitive-uncompetitive pattern	4.48	4.92			0.04 ± 0.002 µmol/min	0.1 ± 0.005%			3.03 µM	entirely inhibit	0.120 ± 0.006 µmol/min	0.085 ± 0.004%
O=c1oc2cc(O)ccc2c2ccccc12 [Uro B, urolithin B]	4.37	0.13	non-competitive-uncompetitive pattern	4.88	4.65			0.033 ± 0.002 µmol/min	0.020 ± 0.001%			3.02 µM	entirely inhibit	0.079 ± 0.004 µmol/min	0.030 ± 0.002%
